Assay results taken from ChEMBL document CHEMBL4715829, “Heterodimeric Rifampicin-Tobramycin conjugates break intrinsic resistance of Pseudomonas aeruginosa to doxycycline and chloramphenicol in vitro and in a Galleria mellonella in vivo model” (Eur J Med Chem, 2019).
Values after ≈ are worked out from the molar mass of the structure shown.

Tests used:
Enterococcus faecium = assay: Antibacterial activity against Enterococcus faecium ATCC 27270 assessed as reduction in bacterial growth incubated for 18 hrs by broth microdilution assay; type: functional
Staphylococcus aureus = assay: Antibacterial activity against methicillin-resistance Staphylococcus aureus ATCC 33592 assessed as reduction in bacterial growth incubated for 18 hrs by broth microdilution assay; type: functional
Pseudomonas aeruginosa [1] = assay: Antibacterial activity against Pseudomonas aeruginosa PAO1 assessed as reduction in bacterial growth by measuring vancomycin MIC at <=10 uM in presence of vancomycin incubated for 18 hrs by broth microdilution assay based checkerboard assay (reference value: 256 microg/ml); type: functional; settings: dose microM <=10
Pseudomonas aeruginosa [2] = assay: Antibacterial activity against Pseudomonas aeruginosa PAO1 assessed as reduction in bacterial growth by measuring doxycycline MIC at <=[…] uM in presence of doxycycline incubated for 18 hrs by broth microdilution assay based checkerboard assay (reference value: […] microg/ml); type: functional; settings: dose microM <=10
Escherichia coli = assay: Antibacterial activity against gentamicin, tobramycin, ciprofloxacin-resistant Escherichia coli ATCC 97615 harboring aac(3')IIa gene assessed as reduction in bacterial growth incubated for 18 hrs by broth microdilution assay; type: functional
Acinetobacter baumannii = assay: Antibacterial activity against Acinetobacter baumannii CAN-ICU 63169 assessed as reduction in bacterial growth incubated for 18 hrs by broth microdilution assay; type: functional
Enterococcus faecalis = assay: Antibacterial activity against Enterococcus faecalis ATCC 29212 assessed as reduction in bacterial growth incubated for 18 hrs by broth microdilution assay; type: functional
Pseudomonas aeruginosa [3] = assay: Antibacterial activity against Pseudomonas aeruginosa PAO1 assessed as reduction in bacterial growth by measuring erythromycin MIC at <=10 uM in presence of erythromycin incubated for 18 hrs by broth microdilution assay based checkerboard assay (reference value: 256 microg/ml); type: functional; settings: dose microM <=10
Pseudomonas aeruginosa [4] = assay: Antibacterial activity against Pseudomonas aeruginosa PAO1 assessed as reduction in bacterial growth by measuring tobramycin MIC at <=10 uM in presence of tobramycin incubated for 18 hrs by broth microdilution assay based checkerboard assay (reference value: 1 microg/ml); type: functional; settings: dose microM <=10
Pseudomonas aeruginosa [5] = assay: Antibacterial activity against Pseudomonas aeruginosa PAO1 assessed as fractional inhibitory concentration index in presence of Moxifloxacin incubated for 18 hrs by broth microdilution assay based checkerboard assay; type: functional
Pseudomonas aeruginosa [6] = assay: Antibacterial activity against Pseudomonas aeruginosa PAO1 assessed as reduction in bacterial growth by measuring aztreonam MIC at <=10 uM in presence of aztreonam incubated for 18 hrs by broth microdilution assay based checkerboard assay (reference value: 4 microg/ml); type: functional; settings: dose microM <=10
Pseudomonas aeruginosa [7] = assay: Antibacterial activity against Pseudomonas aeruginosa PAO1 assessed as fractional inhibitory concentration index in presence of Tobramycin incubated for 18 hrs by broth microdilution assay based checkerboard assay; type: functional
Pseudomonas aeruginosa [8] = assay: Antibacterial activity against Pseudomonas aeruginosa PAO1 assessed as reduction in bacterial growth by measuring cefotaxime MIC at <=[…] uM in presence of cefotaxime incubated for 18 hrs by broth microdilution assay based checkerboard assay (reference value: […] microg/ml); type: functional; settings: dose microM <=10
Pseudomonas aeruginosa [9] = assay: Antibacterial activity against Pseudomonas aeruginosa PAO1 assessed as fractional inhibitory concentration index in presence of Pleuromutilin incubated for 18 hrs by broth microdilution assay based checkerboard assay; type: functional
Streptococcus pneumoniae = assay: Antibacterial activity against Streptococcus pneumoniae ATCC 49619 assessed as reduction in bacterial growth incubated for 18 hrs by broth microdilution assay; type: functional
Pseudomonas aeruginosa [10] = assay: Antibacterial activity against Pseudomonas aeruginosa 260-97103 assessed as reduction in bacterial growth incubated for 18 hrs by broth microdilution assay; type: functional
Pseudomonas aeruginosa [11] = assay: Antibacterial activity against Pseudomonas aeruginosa PAO1 assessed as reduction in bacterial growth by measuring moxifloxacin MIC at <=10 uM in presence of moxifloxacin incubated for 18 hrs by broth microdilution assay based checkerboard assay (reference value: 1 microg/ml); type: functional; settings: dose microM <=10
Pseudomonas aeruginosa [12] = assay: Antibacterial activity against Pseudomonas aeruginosa PAO1 assessed as reduction in bacterial growth by measuring linezolid MIC at <=10 uM in presence of linezolid incubated for 18 hrs by broth microdilution assay based checkerboard assay (reference value: 1024 microg/ml); type: functional; settings: dose microM <=10
Pseudomonas aeruginosa [13] = assay: Antibacterial activity against Pseudomonas aeruginosa 259-96918 assessed as reduction in bacterial growth incubated for 18 hrs by broth microdilution assay; type: functional
Pseudomonas aeruginosa [14] = assay: Antibacterial activity against Pseudomonas aeruginosa PAO1 assessed as reduction in bacterial growth by measuring novobiocin MIC at <=10 uM in presence of novobiocin incubated for 18 hrs by broth microdilution assay based checkerboard assay (reference value: 512 microg/ml); type: functional; settings: dose microM <=10
Pseudomonas aeruginosa [15] = assay: Antibacterial activity against Pseudomonas aeruginosa PAO1 assessed as reduction in bacterial growth by measuring tigecycline MIC at <=10 uM in presence of tigecycline incubated for 18 hrs by broth microdilution assay based checkerboard assay (reference value: 4 microg/ml); type: functional; settings: dose microM <=10
Pseudomonas aeruginosa [16] = assay: Antibacterial activity against gentamicin-resistant Pseudomonas aeruginosa CAN-ICU 62308 assessed as reduction in bacterial growth incubated for 18 hrs by broth microdilution assay; type: functional
[17] = Hemolytic activity in porcine erythrocyte at 1024 ug/ml incubated for 1 hr; type: ADME, cell-based, Sus scrofa; settings: pig, porcine erythrocytes, at 1024 µg/mL, read-out: Activity
Pseudomonas aeruginosa [18] = assay: Antibacterial activity against Pseudomonas aeruginosa PAO1 assessed as fractional inhibitory concentration index in presence of Trimethoprim incubated for 18 hrs by broth microdilution assay based checkerboard assay; type: functional
Pseudomonas aeruginosa [19] = assay: Antibacterial activity against Pseudomonas aeruginosa 91433 assessed as reduction in bacterial growth incubated for 18 hrs by broth microdilution assay; type: functional
Pseudomonas aeruginosa [20] = assay: Antibacterial activity against Pseudomonas aeruginosa PAO1 assessed as fractional inhibitory concentration index in presence of Clindamycin incubated for 18 hrs by broth microdilution assay based checkerboard assay; type: functional
Pseudomonas aeruginosa [21] = assay: Antibacterial activity against Pseudomonas aeruginosa PAO1 assessed as fractional inhibitory concentration index in presence of Linezolid incubated for 18 hrs by broth microdilution assay based checkerboard assay; type: functional
Pseudomonas aeruginosa [22] = assay: Antibacterial activity against Pseudomonas aeruginosa PAO1 assessed as reduction in bacterial growth by measuring chloramphenicol MIC at <=[…] uM in presence of chloramphenicol incubated for 18 hrs by broth microdilution assay based checkerboard assay (reference value: […] microg/ml); type: functional; settings: dose microM <=10
Pseudomonas aeruginosa [23] = assay: Antibacterial activity against Pseudomonas aeruginosa PAO1 assessed as fractional inhibitory concentration index in presence of Chloramphenicol incubated for 18 hrs by broth microdilution assay based checkerboard assay; type: functional
[24] = Cytotoxicity against human HEK293 cells assessed as cell viability at <10 uM incubated for 48 hrs by prestoblue assay; type: cell-based; settings: read-out: Activity
[25] = test system: Stenotrophomonas maltophilia; assay: Antibacterial activity against Stenotrophomonas maltophilia CAN-ICU 62584 assessed as reduction in bacterial growth incubated for 18 hrs by broth microdilution assay; type: functional
Pseudomonas aeruginosa [26] = assay: Antibacterial activity against Pseudomonas aeruginosa 101243 assessed as fractional inhibitory concentration index in presence of doxycycline incubated for 18 hrs by broth microdilution assay; type: functional
Pseudomonas aeruginosa [27] = assay: Antibacterial activity against Pseudomonas aeruginosa 100036 assessed as fractional inhibitory concentration index in presence of doxycycline incubated for 18 hrs by broth microdilution assay; type: functional
Pseudomonas aeruginosa [28] = assay: Antibacterial activity against Pseudomonas aeruginosa 91433 assessed as fractional inhibitory concentration index in presence of chloramphenicol incubated for 18 hrs by broth microdilution assay; type: functional
Pseudomonas aeruginosa [29] = assay: Antibacterial activity against Pseudomonas aeruginosa 100036 assessed as fractional inhibitory concentration index in presence of chloramphenicol incubated for 18 hrs by broth microdilution assay; type: functional

Structure (SMILES)	MIC (Enterococcus faecium) [µg/mL]	MIC (Staphylococcus aureus) [µg/mL]	MIC (Pseudomonas aeruginosa [1]) [µg/mL]	MIC (Pseudomonas aeruginosa [2]) [µg/mL]	MIC (Escherichia coli) [µg/mL]	MIC (Acinetobacter baumannii) [µg/mL]	MIC (Enterococcus faecalis) [µg/mL]	MIC (Pseudomonas aeruginosa [3]) [µg/mL]	MIC (Pseudomonas aeruginosa [4]) [µg/mL]	fractional inhibitory concentration index (FICI) (Pseudomonas aeruginosa [5])	MIC (Pseudomonas aeruginosa [6]) [µg/mL]	fractional inhibitory concentration index (FICI) (Pseudomonas aeruginosa [7])	MIC (Streptococcus pneumoniae) [µg/mL]	MIC (Pseudomonas aeruginosa [10]) [µg/mL]	MIC (Pseudomonas aeruginosa [13]) [µg/mL]	MIC (Pseudomonas aeruginosa [16]) [µg/mL]	MIC (Pseudomonas aeruginosa [19]) [µg/mL]	MIC [25] [µg/mL]	fractional inhibitory concentration index (FICI) (Pseudomonas aeruginosa [26])	fractional inhibitory concentration index (FICI) (Pseudomonas aeruginosa [29])	other results
CO[C@H]1/C=C/O[C@@]2(C)Oc3c(C)c(O)c4c(O)c(c(/C=N/N5CCN(Cc6cn(CCCCO[C@@H]7[C@@H](O[C@H]8O[C@H](CO)[C@@H](O)[C@H](N)[C@H]8O)[C@H](N)C[C@H](N)[C@H]7O[C@H]7O[C@H](CN)[C@@H](O)C[C@H]7N)nn6)CC5)c(O)c4c3C2=O)NC(=O)/C(C)=C\C=C\[C@H](C)[C@H](O)[C@@H](C)[C@@H](O)[C@@H](C)[C@H](OC(C)=O)[C@@H]1C.O=C(O)C(F)(F)F.O=C(O)C(F)(F)F.O=C(O)C(F)(F)F.O=C(O)C(F)(F)F.O=C(O)C(F)(F)F	32	> 32	256	1	> 32	> 32	> 32	128	1	1.03	4	1.03	1	> 128	> 128	> 32	> 128	> 32	–	–	MIC (Pseudomonas aeruginosa [8]): 16 µg/mL; fractional inhibitory concentration index (FICI) (Pseudomonas aeruginosa [9]): 1.03; MIC (Pseudomonas aeruginosa [11]): 1 µg/mL; MIC (Pseudomonas aeruginosa [12]): 1020 µg/mL; MIC (Pseudomonas aeruginosa [14]): 256 µg/mL; MIC (Pseudomonas aeruginosa [15]): 2 µg/mL; hemolysis at 1 h, 1024 ug/ml [17]: < 2%; fractional inhibitory concentration index (FICI) (Pseudomonas aeruginosa [18]): 1.03; fractional inhibitory concentration index (FICI) (Pseudomonas aeruginosa [20]): 0.53; fractional inhibitory concentration index (FICI) (Pseudomonas aeruginosa [21]): 1.03; MIC (Pseudomonas aeruginosa [22]): 8 µg/mL; fractional inhibitory concentration index (FICI) (Pseudomonas aeruginosa [23]): 0.28; viability at 48 h [24]: > 90%
NC[C@H]1O[C@H](O[C@H]2[C@H](O)[C@@H](O[C@H]3O[C@H](CO)[C@@H](O)[C@H](N)[C@H]3O)[C@H](N)C[C@@H]2N)[C@H](N)C[C@@H]1O [TOBRAMYCIN]	16 (≈ 34.2 µM)	0.5 (≈ 1.07 µM)	–	–	128 (≈ 274 µM)	32 (≈ 68.4 µM)	8 (≈ 17.1 µM)	–	–	–	–	–	2 (≈ 4.28 µM)	32 (≈ 68.4 µM)	256 (≈ 548 µM)	16 (≈ 34.2 µM)	16 (≈ 34.2 µM)	> 512	1.5	1.5	fractional inhibitory concentration index (FICI) (Pseudomonas aeruginosa [27]): 1.5; fractional inhibitory concentration index (FICI) (Pseudomonas aeruginosa [28]): 1.5
CO[C@H]1/C=C/O[C@@]2(C)Oc3c(C)c(O)c4c(O)c(c(/C=N/N5CCN(C)CC5)c(O)c4c3C2=O)NC(=O)/C(C)=C\C=C\[C@H](C)[C@H](O)[C@@H](C)[C@@H](O)[C@@H](C)[C@H](OC(C)=O)[C@@H]1C [RIFAMPIN]	≤ 0.25	> 128	–	–	16 (≈ 19.4 µM)	8 (≈ 9.72 µM)	1 (≈ 1.22 µM)	–	–	–	–	–	≤ 0.25	16 (≈ 19.4 µM)	16 (≈ 19.4 µM)	32 (≈ 38.9 µM)	16 (≈ 19.4 µM)	32 (≈ 38.9 µM)	1.5	1.5	–
CO[C@H]1/C=C/O[C@@]2(C)Oc3c(C)c(O)c4c(O)c(c(/C=N/N5CCN(Cc6cn(CCCCCCO[C@@H]7[C@@H](O[C@H]8O[C@H](CO)[C@@H](O)[C@H](N)[C@H]8O)[C@H](N)C[C@H](N)[C@H]7O[C@H]7O[C@H](CN)[C@@H](O)C[C@H]7N)nn6)CC5)c(O)c4c3C2=O)NC(=O)/C(C)=C\C=C\[C@H](C)[C@H](O)[C@@H](C)[C@@H](O)[C@@H](C)[C@H](OC(C)=O)[C@@H]1C.Cl.Cl.Cl.Cl.Cl	> 32	> 32	256	0.5	> 32	> 32	> 32	32	1	0.53	4	1.03	2	> 128	> 128	> 32	> 128	> 32	0.125	0.066	MIC (Pseudomonas aeruginosa [8]): 16 µg/mL; fractional inhibitory concentration index (FICI) (Pseudomonas aeruginosa [9]): 0.28; fractional inhibitory concentration index (FICI) (Pseudomonas aeruginosa [27]): 0.078; MIC (Pseudomonas aeruginosa [11]): 0.5 µg/mL; MIC (Pseudomonas aeruginosa [12]): 128 µg/mL; MIC (Pseudomonas aeruginosa [14]): 128 µg/mL; fractional inhibitory concentration index (FICI) (Pseudomonas aeruginosa [28]): 0.375; MIC (Pseudomonas aeruginosa [15]): 2 µg/mL; hemolysis at 1 h, 1024 ug/ml [17]: < 2%; fractional inhibitory concentration index (FICI) (Pseudomonas aeruginosa [18]): 0.53; fractional inhibitory concentration index (FICI) (Pseudomonas aeruginosa [20]): 0.28; fractional inhibitory concentration index (FICI) (Pseudomonas aeruginosa [21]): 0.15; MIC (Pseudomonas aeruginosa [22]): 1 µg/mL; fractional inhibitory concentration index (FICI) (Pseudomonas aeruginosa [23]): 0.06; viability at 48 h [24]: > 90%
